We go through two substances from US10913788B2, “Pharmaceutical composition for preventing or treating dry eyes” (EYEBIO KOREA, priority 2015, dated 2021).

Holding throughout (format): in vivo
One test deals with NOD.B10.H2^b mice. Briefly: Tear production measured with phenol red-impregnated cotton threads in dry eye mice after removal of desiccation stress. Particulars: for increased tear production compared to the control group (PBS group): 10 mg/ml in PBS, 5 μL instilled into eyeballs 5 times per day, up to 10 days after removal of desiccation stress, p<0.05; for tear production / tear volume, result in words: eye instillation 5 times per day for 10 days after removal of desiccation stress, 0.1% HA. The procedure: (§1) NOD.B10.H2^b mice were purchased from Jackson Laboratory (Bar Harbor, Me., USA). Experiments on animals were performed according to the guidelines for animal experiments of Inje University College of Medicine (No.; 2014-029) and the ARVO statement for the use of animals in ophthalmic and vision research. 12-to-16-week-old NOD.B10.H2^b mice underwent desiccation stress as being exposed to an air draft from a fan at an ambient humidity of about 40% to 50% for 18 hours per day, and then, were subjected to subcutaneous injection of 0.5 mg/0.2 mL of muscarinic receptor blockers. Also, the mice were injected with scopolamine hydrobromide (Sigma-Aldrich, St. Louis, Mo.) alternatively on hindquarters 4 times per day (9 AM, 12 PM, 3 PM, and 6 PM) for 10 days. During these experiments, behaviors and food and water intakes of the mice were not restricted. 10 days later, the mice were euthanized.
(§2) 10 days after the mice underwent desiccation stress, the scopolamine injection was halted, and then, the mice newly had environments with normal humidity and temperature. After the desiccation stress was removed, the mice were divided into a peptide I group or a peptide II group, wherein 10 mg/ml of peptide I or 10 mg/ml of peptide II was dissolved in PBS and 5 μL of PBS was instilled into eyeballs of the mice 5 times per day for 10 days. In addition, 5 μL of PBS or 5 μL of 0.1% HA were instilled into eyeballs of the mice in a control group, i.e., a PBS group or a hyaluni (HA) group, 5 times a day for 10 days. In each group, both eyes of each of 5 mice were used to conduct the experiments in a repetitive manner.
Extents of tear production were measured with phenol red-impregnated cotton threads (Zone-Quick; Oasis, Glendora, Calif.), as previously described (Villareal A L, Farley W, Pflugfelder S C. Effect of topical ophthalmic epinastine and olopatadine on tear volume in mice. Eye Contact Lens. 2006; 32(6):272-276). The threads were held medical tweezers and placed in the lateral canthus for 20 seconds. The tear volumes were expressed as millimeter (mm) of wet thread that had been turned red by the tears, as measured under a microscope (SZX7; Olympus corp, Tokyo, Japan).
The tear fluid uptakes measured in millimeters were compared to a standard curve that was prepared from cotton threads with known uptake volumes of a stock basic solution ([…] of 0.9% saline and 5 mL of 5 N NaOH) over 20 seconds that were within the range that would be expected for mouse tears.

The test system of another test is corneal epithelial cells. The test can be described thus: Detachment of corneal epithelial cells (H&E stain) in dry eye mice. The conditions noted are these: instillation for 10 days after removal of desiccation stress. Here is the method:
as §1
(§3) 10 days after the mice underwent desiccation stress, the scopolamine injection was halted, and then, the mice newly had environments with normal humidity and temperature. After the desiccation stress was removed, the mice were divided into a peptide I group or a peptide II group, wherein 10 mg/ml of peptide I or 10 mg/ml of peptide II was dissolved in PBS and 5 μL of PBS was instilled into eyeballs of the mice 5 times per day for 10 days. […]

For test [1], the system named is conjunctival goblet cells. The test can be described thus: Distribution of conjunctival goblet cells (PAS stain) in dry eye mice. Particulars: instillation after removal of desiccation stress, p<0.05; for conjunctival goblet cells: desiccation stress 7.43±1.52. Here is the method: as §1, §2
The eyes and adnexa of the mice in the control groups (i.e., the PBS group and the HA group) and the experimental groups (i.e., the peptide I group and the peptide II group) were surgically excised, fixed in 10% formalin, and embedded in paraffin and an OCT compound.
6 μm sections of the tissue samples were stained with haematoxylin and eosin (H&E) and periodic acid-Schiff (PAS) reagent.
5 animals in each group were subjected to the staining as described above, and then, were examined and photographed with a virtual microscope (NanoZoomer 2.0 RS, Hamamatsu, Japan).
The distribution of the conjunctival goblet cells in the dry eye mice were observed following peptide I, peptide II, and HA instillation.

For test [2], the system named is TNF-α, ICAM-1, VCAM-1, MMP-2, and MMP-9. The test can be described thus: Immunohistochemical analysis of inflammatory markers in conjunctiva of dry eye mice. Particulars: instillation for 10 days after removal of desiccation stress. Here is the method:
as §1, §3

As to “GDRGD [peptide I, collagen type I α1 based peptide GDRGD]”, in the test on NOD.B10.H2^b mice, the “increased tear production compared to the control group (PBS group)” value is listed as “about 2.52 fold” and the “tear production / tear volume, result in words” value is on record as “recovering the tear volumes up to normal tear volumes”. Moreover, the “number of detached corneal epithelial cells” value with corneal epithelial cells (DS 10D 2.29±0.61, PBS 1.43±0.34) is listed as “about 0.19±0.14 /0.1 mm^2”. Moreover, in test [1], the conjunctival goblet cells came to 13.3 ± 2.41 cells/0.1 mm^2 and the “increase of conjunctival goblet cells that were decreased by desiccation stress” value is “about 1.8 fold”. The “expression of inflammatory markers (TNF-α, ICAM-1, VCAM-1, MMP-2, MMP-9) in the conjunctiva, result in words” value in test [2] is reported as “significantly decreased”.

“GQDGLAGPK [peptide II, collagen type II α1 based peptide …]”: in the test on NOD.B10.H2^b mice, the “increased tear production compared to the control group (PBS group)” value is on record as “about 2.52 fold” and the “tear production / tear volume, result in words” value is on record as “recovering the tear volumes up to normal tear volumes”. The “decrease of detachment of corneal epithelial cells compared to the control groups” value in the test with corneal epithelial cells is reported as “about 4 fold”. For the same substance, in test [1], the conjunctival goblet cells was found to be 12.1 ± 1.11 cells/0.1 mm^2 and the “increase of conjunctival goblet cells that were decreased by desiccation stress” value is recorded as “about 1.63 fold”. Further, the “expression of inflammatory markers (TNF-α, ICAM-1, VCAM-1, MMP-2, MMP-9) in the conjunctiva, result in words” value in test [2] is listed as “significantly decreased”.
